For test [1], the system named is pressurized cerebral arteries from wt mice. In words: Artery diameter measurement, pressurized cerebral arteries from wt C57BL/6 mice. Details: species or system mouse. The protocol:
Artery Diameter Measurement. Middle cerebral arteries were isolated from adult male Sprague-Dawley rats (=250 g) or 8- to 12-week-old β1-knockout and C57BL/6 control mice. Rats and mice were decapitated using a guillotine and sharp scissors, respectively. These procedures were approved by the Institutional Animal Care and Use Committee from The University of Tennessee Health Science Center, an AMLAC-accredited institution. Pressurization of arteries was performed as described (Liu et al., 2004). Endothelium was removed by passing an air bubble into the vessel lumen for 90 sec. Diameter changes were monitored through an inverted microscope (Nikon Eclipse TS100, Nikon Corp., Tokyo, Japan), recorded on camera (Sanyo VCB-3512T, Sanyo Electric Corp., Japan), and transferred to a computer. Diameter data were acquired and analyzed using IonWizard 4.4 software (IonOptics Corp., Milton, Mass., United States of America). […]
Data Analysis. […] Arterial diameter and electrophysiological data were analyzed with IonWizard 4.4 (IonOptics Corp., Milton, Mass., United States of America) and pCLAMP 8.0 (Molecular Devices, Union City, Calif., United States of America). […]
To determine the impact of LC targeting of BK β1-subunits on organ function, LC action on the arterial diameter of pressurized cerebral arteries was evaluated from β1-knockout vs. wt C57BU6 mice (controls). […]

Test [2] relates to pressurized resistance cerebral arteries. The experiment in a line: Artery diameter measurement, pressurized rat middle cerebral arteries. The settings on record: for Integral (area under the curve) from the time of drug application until complete washout of effect: change in diameter as a function of time; for Effect remaining after ~6 min of washout (percentual increase from diameter before agent application): when vehicle effect had totally vanished. How it is done: Artery Diameter Measurement. Middle cerebral arteries were isolated from adult male Sprague-Dawley rats (=250 g) or 8- to 12-week-old β1-knockout and C57BL/6 control mice. Rats and mice were decapitated using a guillotine and sharp scissors, respectively. These procedures were approved by the Institutional Animal Care and Use Committee from The University of Tennessee Health Science Center, an AMLAC-accredited institution. Pressurization of arteries was performed as described (Liu et al., 2004). Endothelium was removed by passing an air bubble into the vessel lumen for 90 sec. Diameter changes were monitored through an inverted microscope (Nikon Eclipse TS100, Nikon Corp., Tokyo, Japan), recorded on camera (Sanyo VCB-3512T, Sanyo Electric Corp., Japan), and transferred to a computer. Diameter data were acquired and analyzed using IonWizard 4.4 software (IonOptics Corp., Milton, Mass., United States of America).
Pressurized arteries were extraluminally perfused with physiological saline solution (PSS) (Liu et al., 2004) at a constant rate of 3.75 ml/min using a peristaltic pump Dynamax RP-1 (Rainin Instrument, Inc., Oakland, Calif., United States of America). At this rate, complete washout of the iberiotoxin (Ibtx) effect required >45 min. To keep basal tone under steady behavior, we shortened this period by increasing flow rate ˜3 times during washout of Ibtx, which sometimes evoked a flow-induced dilation (FIG. 1A). Equal volumes (25 ml) of vehicle- vs. LC-containing solutions were applied at equal, constant rate (see above) to the pressurized arterial segment in the chamber via a gravity system. Drugs were dissolved to make stock solutions (see Chemicals) and diluted in PSS to final concentration.
Chemicals. All chemicals were purchased from Sigma (St. Louis, Mo., United States of America), with the exception of 5β-cholanic acid 3α-ol (LC) (Steraloids, Inc., Newport, R.I., United States of America) and Ibtx (Alomone Labs Ltd., Jerusalem, Israel). On the day of the experiment, an LC stock solution (333 mM) in dimethyl sulfoxide (DMSO) was freshly prepared by sonication for 5 min. For arterial tone experiments, the LC stock was diluted 1/10 in DMSO and further diluted in PSS to render final LC concentration. Solution containing vehicle (0.1% DMSO; V/V) was used as control perfusion. For electrophysiological recordings, the LC stock solution was diluted 1/10 in 95% ethanol and further diluted with bath solution to render final LC concentration (3-1,000 μM). The DMSO/ethanol vehicle (≦0.1/≦0.86% final concentrations) in bath solution was used as control.
Data Analysis. Artery diameter response to each compound is shown as a percentage of the diameter obtained before compound application. Arterial diameter and electrophysiological data were analyzed with IonWizard 4.4 (IonOptics Corp., Milton, Mass., United States of America) and pCLAMP 8.0 (Molecular Devices, Union City, Calif., United States of America). Further analysis, plotting, and fitting were conducted using Origin 7.0 (Originlab Corp., Northampton, Mass., United States of America) and InStat 3.0 (GraphPad Software Inc., San Diego, Calif., United States of America).
After myogenic tone development at 60 mm Hg, intact arteries reached a diameter of 154.4±5.2 μm (n=17). Maximal contraction and dilation were checked by perfusing the vessel with 60 mM KCl at the beginning, and Ca^2+-free solution at the end of each experiment (FIGS. 1A & 1B). In all cases (n=17), application of 45 μM LC, that is, concentrations well below LC's critical micellar concentration (CMC) (≧1 mM under our recording conditions) (Roda et al., 1995) caused a significant increase in peak arterial diameter: +6% on top of a transient increase in diameter caused by vehicle-containing solution (FIGS. 1A-1C). […]

Where [3] appears, read: 45 μM, listed as Lithocholic acid.

Regarding `C[C@H](CCC(=O)O)[C@H]1CC[C@H]2[C@@H]3CC[C@@H]4C[C@H](O)CC[C@]4(C)[C@H]3CC[C@]12C` [LC, 5β-cholanic acid 3α-ol], the “Increase in diameter from initial diameter” value in test [1] (45 μM, wt mouse cerebral arteries) was “+4.4±0.9%”. Further, the “Change in diameter caused by LC in the presence of Ibtx” value in test [2] (45 μM LC + 55 nM Ibtx) is on record as −3.4%. Also, the “Change in peak diameter caused by LC in the presence of 4-AP (over pre-LC values)” value in test [2] (45 μM LC + 0.8 mM 4-AP) is listed as “+6%”. For the same compound, in test [2] (45 μM), the “Integral (area under the curve) from the time of drug application until complete washout of effect” value is 18,369±3,964 and the “Effect remaining after ~6 min of washout (percentual increase from diameter before agent application)” value came to 109.9±1.7%. For the same compound, in test [2] (setting [3]), the “Integral (area under the curve) from the time of drug application until complete washout of effect” value is 18,369 ± 3,964 and the “Effect remaining after ~6 min of washout (percentual increase from diameter before agent application)” value is on record as 109.9 ± 1.7 %. Moreover, the “Expected increase in cerebral blood flow (CBF)” value in test [2] (45 μM, from diameter change by a factor of ~3 (Gourley and Heistad, 1984)) is listed as around 30%. Further, in test [2] (45 μM, intact arteries), the “Increase in peak arterial diameter on top of the transient increase caused by vehicle” value was “+6%”. The same compound showed a Rise time in test [2] (45 μM, intact arteries with myogenic tone at 60 mm Hg) of 231.9 ± 21.9 s. For the same compound, the Emax at 45 µM in test [2] (Rattus norvegicus, 45 μM, intact arteries, read-out: Maximal effect (% from diameter before compound application)) is 117 ± 1.9%.
Consider “iberiotoxin (QFTDVDCSVSKECWSVCKDLFGVDRGKCMGKKCRCYQ; UniProt P24663 1-37, looked up) [Ibtx, reference compound]”, for which the “Decrease from initial diameter (vasoconstriction)” value in test [1] (55 nM, within 15 min of application, control mice) was −8.7±4.2%. In test [2] (55 nM, bath application), the “Decrease in diameter of intact arteries” value was −11.8±3.4%.

The record behind these values is patent US20080200439A1, “Methods and compositions for modulating BK channel activity and vasodilation” (University of Tennessee Research Foundation, priority 2006, published 2008).
